Results: patent publication EP1001774B1, “USE OF PHOSPHOLAMBAN INHIBITORS FOR INCREASING CORONARY FLOW” (ORION CORPORATION, priority 1997, dated 1999)

What was measured:
phospholamban = target: T1, phospholamban (Cavia porcellus, UniProt A0A286XLC6); test: Calcium uptake assay (fluo-3) in SR vesicles from cardiac tissue; assay type: biochemical, guinea-pig; conditions: vesicles from ventricular myocardium, 0.1 µM free calcium, read-out: The stimulation (%) of Ca^2+ uptake A; for activation at 100 µM: 100 µM compound; for activation at 10 µM: 10 µM compound
T1 construct: calcium uptake into the SR vesicles prepared from cardiac tissue; from tissue; host or cells: guinea-pig heart (ventricular myocardium), SR vesicle preparation
T1 sequence (A0A286XLC6 1-52): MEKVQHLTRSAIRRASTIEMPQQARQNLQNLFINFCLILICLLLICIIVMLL
From the text: (§1) The direct binding of a compound to the phospholamban protein can be ascertained by the circular dichroism (CD) spectroscopy. The methods for determining whether a compound relieves the inhibitory effect of phospholamban on SR Ca^2+-ATPase by direct binding to the phospholamban protein, i.e. is a phospholamban inhibitor, are illustrated in detail in the experimental section.
(§2) The effect on phospholamban of the compounds used in the invention was verified by measuring its effects on calcium uptake into the SR vesicles prepared from cardiac tissue and into vesicles prepared from fast skeletal muscle (psoas m.). […] The methods are described below in detail.
(§3) Guinea pigs (10-12) were decapited. Their hearts or the psoas muscles were excised, washed in ice-cold 0.9 % NaCl and cut into pieces in a buffer containing 20 mM Tris-maleate, 0.3 M sucrose, pH 7.0. Thereafter tissue pieces were homogenized with Polytron and further with Potter (10 strokes). The homogenate was centrifugated at 1000 g for 15 min at 4 °C. The supernatant was collected and the pellet was resuspended into 5 ml of the buffer (20 mM Tris-maleate, 0.3 M sucrose, pH 7.0) and recentrifugated at 1000 g for 10 min at 4 °C. The obtained supernatant was combined with the earlier collected supernatant and centrifugated once again at 10 000 g for 20 min at 4 °C. The final supernatant was filtered into a bottle equipped with a magnetic stirrer. KCl was added to the filtered supernatant to achieve the final concentration of 0.6 M (at 4 °C). The obtained solution was centrifugated at 100 000 g for 60 min at 4 °C. The pellet was suspended in 5 ml of the buffer containing 20 mM Tris-maleate, 0.3 M sucrose, pH 7.0 and centrifugated at 100 000 g for 60 min at 4 °C. The obtained pellet was suspended in 5 ml of buffer containing 20 mM Tris-maleate, 0.3 M sucrose, 0.1 M KCI, pH 7.0 and stored at -80 °C until use. The protein concentration was also measured in order to standardise the separately prepared vesicle preparations.
(§4) In the calcium uptake assay, the fluorescent indicator, fluo-3 was used to detect the decrease of the extravesicular Ca^2+-concentration, when the SR Ca^2+ATPase was transferring Ca^2+ from the extravesicular space into the SR-vesicles.
(§5) The SR-vesicles obtained above (50 µg protein/ml) were preincubated with or without the test compound at 37 °C for 5 min in the assay buffer containing 40 mM imidazole, 95 mM KCI, 5 mM NaN3, 5 mM MgCl2, 0.5 mM EGTA, 5 mM potassium oxalate, 2 µM ruthenium red, 5 µM fluo-3, pH 7.0. The free calcium was adjusted to 0.1 µM or to 0.04 µM by CaCl2. The reaction was initiated by adding ATP (5 mM). The final reaction volume was 1.5 ml. The fluorescence of reaction mixture was measured for 3 min by using the excitation and emission wavelengths of 510 nm and 530 nm, respectively.

coronary arteries = test: Coronary flow in isolated paced heart (Langendorff, constant pressure); set-up: species or system guinea-pig; conditions: Cavia porcellus; for Emax at 10 µM / Emax at 30 µM / Emax at 3 µM: read-out: Maximum effect (% change from baseline) on the coronary flow; for EC50: isolated heart, constant pressure 50 mmHg, paced at 250 beats/min
Description: Guinea-pigs of either sex weighing 300-400 g were used in the study. After the guinea-pig was sacrificed by a blow on the skull and decapitated the heart was rapidly excised. The heart was then rinsed in cold oxygenated perfusion buffer. A cannula was inserted into the aorta and secured with a ligature. Retrograde perfusion began as soon as the heart was placed in a thermostatically controlled moist chamber of the Langendorff apparatus. Modified Tyrode solution (37 °C), equilibrated in a thermostatically controlled bulb oxygenator with carbogen (95 % O2 and 5% CO2) was used as a perfusion buffer. The composition of the Tyrode solution was (in mM): NaCl 135; MgCl2 x 6H2O 1; KCl 5; CaCl2 x 2H2O 2; NaHCO3 15; Na2HPO4 x 2H2O 1; glucose 10; pH 7.3-7.4. The experiments were carried out under constant pressure condition (50 mmHg). After a short prestabilization (10 min) a latex balloon (size 4) was carefully placed into the left ventricle through the left pulmonary vein and the left atrium. The latex balloon was attached to a stainless-steel cannula coupled with a pressure transducer. The latex balloon, the cannula and the chamber of the pressure transducer were filled with ethylene glycol / water (1:1) mixture avoiding any air-bubble. The isovolumetric left ventricular pressure was recorded through the pressure transducer. The maximal positive and negative derivatives of the left ventricular pressure were calculated by using the digitized pressure signals. At the beginning of the experiment, the volume of the balloon was adjusted to obtain a diastolic pressure of approximately 5 mmHg. Coronary flow (ml/min) was continuously recorded by an electromagnetic flow meter with a flow probe inserted above the aortic cannula. The heart was paced at 250 beats/min with a coaxial electrode localized on the surface of the right atrium. Before starting the experiment, the heart was allowed to stabilise further for 30 - 50 min with vehicle (0.1% DMSO) to reach a stable coronary flow.
After 15 min baseline recording various concentrations of the test compound of Example 1c were added to the perfusion buffer at 15 min intervals. The concentration range of 0.3 - 30 µM was tested. The vehicle concentration (0.1% DMSO) was kept constant throughout the experiment.

SR Ca^2+-ATPase = test: Calcium uptake assay (fluo-3) in SR vesicles from fast skeletal muscle (psoas m.), which contain no phospholamban; assay type: biochemical, guinea-pig; conditions: vesicles from fast skeletal muscle, 0.04 µM free calcium
From the text: as §1, §2, §3, §4, §5

Row | SMILES | activation at 100 µM (phospholamban) | Emax at 10 µM (coronary arteries) | EC50 (coronary arteries) | Emax at 30 µM (coronary arteries) | also measured
1 | Cc1c(Cc2ccccc2)c(=O)n(Cc2ccccc2)c2cc(OCC(N)=O)cc(OCC(N)=O)c12 [Example 21, 5,7-Bis(aminocarbonylmethoxy)-1,3-dibenzyl-4-methyl-2(1H)-quinolinone] | 11% | 141% | 2 µM | – | –
2 | Cc1cc(=O)n(Cc2ccccc2)c2cc(OCc3nnn[nH]3)cc(OCc3nnn[nH]3)c12 [Example 18e, 1-Benzyl-5,7-bis-[(1H-tetrazol-5-yl)methoxy]-4-methyl-2(1H)-quinolinone] | 13% | – | 5 µM | 69% | –
3 | O=c1oc2cc(OCc3nnn[nH]3)cc(OCc3nnn[nH]3)c2c2c1C(c1ccccc1)CCC2 (centres unmarked) [Example 2c, 7,8,9,10-Tetrahydro-1,3-bis[(1H -tetrazol-5-yl)methoxy]-7-phenyl-6H-dibenzo[b,d]pyran-6-one] | 26% | – | – | – | The stimulation (%) of Ca^2+ uptake B (SR Ca^2+-ATPase; 100 µM compound): -1%
4 | Cc1c(Cc2ccccc2)c(=O)oc2cc(OC(C)c3nnn[nH]3)cc(OC(C)c3nnn[nH]3)c12 (centres unmarked) [Example 11b, 3-Benzyl-5,7-bis[1-(1H-tetrazol-5-yl)ethoxy]4-methyl-2 H-1-benzopyran-2-one] | 28% | – | 1 µM | – | Emax at 3 µM (coronary arteries): 38%
5 | Cc1c(Cc2ccccc2)c(=O)oc2cc(OCc3noc(=O)[nH]3)cc(OCc3noc(=O)[nH]3)c12 [Example 3c, 3-Benzyl-5,7-bis[(2,5-dihydro-5-oxo-4H-1,2,4-oxadiazol-3-yl)-methoxy]-4-methyl-2H-1-benzopyran-2-one] | – | – | 5 µM | 174% | activation at 20 µM (phospholamban; 20 µM compound): 51%; The stimulation (%) of Ca^2+ uptake B (SR Ca^2+-ATPase; 20 µM compound): 0%
6 | Cc1c(CCc2ccccc2)c(=O)oc2cc(OCc3nnn[nH]3)cc(OCc3nnn[nH]3)c12 [Example 7c, 5,7-Bis[(1H-tetrazol-5-yl)methoxy]-4-methyl-3-(2-phenylethyl)-2H-1benzopyran-2-one] | 5% | – | – | – | The stimulation (%) of Ca^2+ uptake B (SR Ca^2+-ATPase; 100 µM compound): -17%
7 | Cc1c(Cc2ccc(Cl)cc2)c(=O)oc2cc(OCc3nnn[nH]3)cc(OCc3nnn[nH]3)c12 [Example 14c, 5,7-Bis[(1H-tetrazol-5-yl)methoxy]-3-(4-chlorobenzyl)-4-methyl-2H-1-benzopyran-2-one] | – | 112% | 1.5 µM | – | activation at 10 µM (phospholamban): 18%
8 | Cc1c(Cc2ccccc2)c(=O)n(Cc2ccccc2)c2cc(OCc3nnn[nH]3)cc(OCc3nnn[nH]3)c12 [Example 8g, 5,7-Bis[(1H-tetrazol-5-yl)methoxy]-1,3-dibenzyl-4-methyl-2(1H)-quinolinone] | – | 100% | 1 µM | – | activation at 10 µM (phospholamban): 18%; The stimulation (%) of Ca^2+ uptake B (SR Ca^2+-ATPase; 10 µM compound): 0%
9 | Cc1c(Cc2ccccc2)c(=O)n(Cc2ccccc2)c2cc(OCC(=O)O)cc(OCC(=O)O)c12 [Example 12, 5,7-Bis(carboxymethoxy)-1,3-dibenzyl-4-methyl-2(1H)-quinolinone] | 32% | 60% | 5 µM | – | –
10 | O=c1cc(-c2ccccc2)c2c(OCc3nnn[nH]3)cc(OCc3nnn[nH]3)cc2o1 [Example 5c, 5,7-Bis[(1H-tetrazol-5-yl)methoxy]-4-phenyl-2H-1-benzopyran-2-one] | – | – | > 10 µM | 52% | –
11 | Cc1c(Cc2ccccc2)c(=O)n(Cc2ccc(F)cc2)c2cc(OCc3nnn[nH]3)cc(OCc3nnn[nH]3)c12 [Example 13d] | – | – | 6 µM | 104% | activation at 50 µM (phospholamban; 50 µM compound): 23%
12 | Cc1c(Cc2ccccc2)c(=O)n(Cc2ccccc2)c2cc(OCC(=O)NO)cc(OCC(=O)NO)c12 [Example 23, 5,7-Bis(hydroxyaminocarbonylmethoxy)-1,3-dibenzyl-4-methyl-2(1H)-quinolinone] | – | – | 0.9 µM | – | activation at 5 µM (phospholamban; 5 µM compound): 20%; Emax at 3 µM (coronary arteries): 55%
